Reference: ChEMBL document CHEMBL3763046 (Bioorg Med Chem, 2016)

Assays:
[1] = test system: Mus musculus; assay: AUC (0 to infinity) in mouse at 20 mg/kg, iv or 35 mg/kg, po administered as single dose by LC/MS/MS analysis; format: ADME, organism-based; conditions: in vivo
[2] = Apparent volume of distribution during terminal phase in mouse at 35 mg/kg, po administered as single dose measured at 0.25 to 24 hrs by LC/MS/MS analysis; format: ADME, organism-based; conditions: in vivo, read-out: Vz/F
[3] = test system: Mus musculus; assay: Half life in mouse at 20 mg/kg, iv or 35 mg/kg, po administered as single dose by LC/MS/MS analysis; format: ADME, organism-based; conditions: in vivo
[4] = test system: Mus musculus; assay: Cmax in mouse at 35 mg/kg, po administered as single dose measured at 0.25 to 24 hrs by LC/MS/MS analysis; format: ADME, organism-based; set-up: dose 35 mg/kg, route oral; conditions: in vivo
[5] = test system: Mus musculus; assay: Tmax in mouse at 35 mg/kg, po administered as single dose by LC/MS/MS analysis; format: ADME, organism-based; conditions: in vivo
[6] = Antitumor activity against human MKN45 cells xenografted in Balb/c mouse assessed as tumor growth inhibition at 50 mg/kg, po bid for 24 days relative to control; format: functional, MKN-45; set-up: scale not given: the % may be the effect or the level left
[7] = test system: Mus musculus; assay: Toxicity in Balb/c mouse xenografted with human MKN45 cells assessed as change in body weight at 50 mg/kg, po bid for 24 days; format: organism-based, MKN-45; conditions: in vivo, 576 h
[8] = test system: Mus musculus; assay: Toxicity in Balb/c mouse xenografted with human HT-29 cells assessed as change in body weight at 50 mg/kg, po bid for 27 days; format: organism-based; conditions: in vivo, 648 h
[9] = test system: HT-29; assay: Antitumor activity against human HT-29 cells xenografted in Balb/c mouse assessed as tumor growth inhibition at 50 mg/kg, po bid for 27 days relative to control; format: functional; set-up: scale not given: the % may be the effect or the level left
[10] = test system: A549; assay: Cytotoxicity against human A549 cells after 72 hrs by MTT assay; format: functional, cell-based; conditions: A549, 72 h
[11] = test system: HT-29; assay: Cytotoxicity against human HT-29 cells after 72 hrs by MTT assay; conditions: HT-29, 72 h
[12] = Potency index, ratio of IC50 for foretinib to IC50 for test compound for cytotoxicity against human MKN45 cells; format: functional, MKN-45
[13] = test system: A549; assay: Potency index, ratio of IC50 for foretinib to IC50 for test compound for cytotoxicity against human A549 cells; format: functional
[14] = test system: HT-29; assay: Potency index, ratio of IC50 for foretinib to IC50 for test compound for cytotoxicity against human HT-29 cells; format: functional
[15] = Cytotoxicity against human MKN45 cells after 72 hrs by MTT assay; conditions: MKN-45, 72 h
[16] = test system: MDA-MB-231; assay: Cytotoxicity against human MDA-MB-231 cells after 72 hrs by MTT assay; format: functional, cell-based; conditions: MDA-MB-231, 72 h
[17] = test system: PBL; assay: Cytotoxicity against human PBL cells after 72 hrs by MTT assay; format: cell-based
[18] = molecular target: Epidermal growth factor receptor (Homo sapiens, UniProt P00533); assay: Inhibition of EGFR (unknown origin) using poly(glu,Tyr)4:1 as substrate incubated for 30 mins by homogeneous time-resolved fluorescence assay
[19] = molecular target: Hepatocyte growth factor receptor (Homo sapiens, UniProt P08581); assay: Inhibition of c-Met kinase (unknown origin) using poly(glu,Tyr)4:1 as substrate incubated for 30 mins by homogeneous time-resolved fluorescence assay
[20] = molecular target: Vascular endothelial growth factor receptor 2 (Homo sapiens, UniProt P35968); assay: Inhibition of KDR (unknown origin) using poly(glu,Tyr)4:1 as substrate incubated for 30 mins by homogeneous time-resolved fluorescence assay
[21] = molecular target: Platelet-derived growth factor receptor alpha (Homo sapiens, UniProt P16234); assay: Inhibition of PDGFR-alpha (unknown origin) using poly(glu,Tyr)4:1 as substrate incubated for 30 mins by homogeneous time-resolved fluorescence assay
[22] = molecular target: Mast/stem cell growth factor receptor Kit (Homo sapiens, UniProt P10721); assay: Inhibition of c-kit (unknown origin) using poly(glu,Tyr)4:1 as substrate incubated for 30 mins by homogeneous time-resolved fluorescence assay
[23] = molecular target: T1, Receptor-type tyrosine-protein kinase FLT3 (Homo sapiens, UniProt P36888); assay: Inhibition of Flt-3 (unknown origin) using poly(glu,Tyr)4:1 as substrate incubated for 30 mins by homogeneous time-resolved fluorescence assay
T1 sequence (P36888 whole entry): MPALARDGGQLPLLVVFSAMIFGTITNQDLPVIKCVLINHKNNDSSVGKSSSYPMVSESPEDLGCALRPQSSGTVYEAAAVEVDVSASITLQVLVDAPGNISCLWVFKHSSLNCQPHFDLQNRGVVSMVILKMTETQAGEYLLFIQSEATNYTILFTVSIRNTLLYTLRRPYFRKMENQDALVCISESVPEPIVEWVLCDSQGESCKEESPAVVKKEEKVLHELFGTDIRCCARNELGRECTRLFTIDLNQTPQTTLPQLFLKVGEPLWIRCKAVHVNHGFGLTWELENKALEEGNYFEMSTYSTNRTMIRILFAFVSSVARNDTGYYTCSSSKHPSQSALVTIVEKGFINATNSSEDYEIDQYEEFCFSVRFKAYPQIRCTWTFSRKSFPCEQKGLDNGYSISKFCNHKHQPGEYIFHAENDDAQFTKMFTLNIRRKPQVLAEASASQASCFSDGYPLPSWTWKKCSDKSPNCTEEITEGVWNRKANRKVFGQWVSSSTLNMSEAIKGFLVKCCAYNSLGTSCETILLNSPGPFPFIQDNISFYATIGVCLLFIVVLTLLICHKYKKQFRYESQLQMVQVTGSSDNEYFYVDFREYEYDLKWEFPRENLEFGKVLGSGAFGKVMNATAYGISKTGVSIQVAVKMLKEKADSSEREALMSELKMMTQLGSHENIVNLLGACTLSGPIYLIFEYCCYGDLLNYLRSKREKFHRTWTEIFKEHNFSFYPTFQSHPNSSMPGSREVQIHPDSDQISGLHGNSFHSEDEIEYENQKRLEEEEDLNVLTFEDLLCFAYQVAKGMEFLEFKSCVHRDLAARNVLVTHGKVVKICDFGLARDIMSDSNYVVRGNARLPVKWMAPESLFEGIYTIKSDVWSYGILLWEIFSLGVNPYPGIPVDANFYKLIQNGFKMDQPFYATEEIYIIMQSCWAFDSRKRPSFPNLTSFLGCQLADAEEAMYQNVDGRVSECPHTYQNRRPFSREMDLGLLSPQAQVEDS

[24] = molecular target: Macrophage-stimulating protein receptor (Homo sapiens, UniProt Q04912); assay: Inhibition of Ron (unknown origin) using poly(glu,Tyr)4:1 as substrate incubated for 30 mins by homogeneous time-resolved fluorescence assay
[25] = Mean residence time (0 to infinity) in mouse at 20 mg/kg, iv or 35 mg/kg, po administered as single dose by LC/MS/MS analysis; format: ADME, organism-based; conditions: in vivo
[26] = test system: Mus musculus; assay: Apparent oral clearance in mouse at 35 mg/kg, po administered as single dose measured at 0.25 to 24 hrs by LC/MS/MS analysis; format: ADME, organism-based; conditions: in vivo

Mast/stem cell growth factor receptor Kit, sequence (P10721 whole entry): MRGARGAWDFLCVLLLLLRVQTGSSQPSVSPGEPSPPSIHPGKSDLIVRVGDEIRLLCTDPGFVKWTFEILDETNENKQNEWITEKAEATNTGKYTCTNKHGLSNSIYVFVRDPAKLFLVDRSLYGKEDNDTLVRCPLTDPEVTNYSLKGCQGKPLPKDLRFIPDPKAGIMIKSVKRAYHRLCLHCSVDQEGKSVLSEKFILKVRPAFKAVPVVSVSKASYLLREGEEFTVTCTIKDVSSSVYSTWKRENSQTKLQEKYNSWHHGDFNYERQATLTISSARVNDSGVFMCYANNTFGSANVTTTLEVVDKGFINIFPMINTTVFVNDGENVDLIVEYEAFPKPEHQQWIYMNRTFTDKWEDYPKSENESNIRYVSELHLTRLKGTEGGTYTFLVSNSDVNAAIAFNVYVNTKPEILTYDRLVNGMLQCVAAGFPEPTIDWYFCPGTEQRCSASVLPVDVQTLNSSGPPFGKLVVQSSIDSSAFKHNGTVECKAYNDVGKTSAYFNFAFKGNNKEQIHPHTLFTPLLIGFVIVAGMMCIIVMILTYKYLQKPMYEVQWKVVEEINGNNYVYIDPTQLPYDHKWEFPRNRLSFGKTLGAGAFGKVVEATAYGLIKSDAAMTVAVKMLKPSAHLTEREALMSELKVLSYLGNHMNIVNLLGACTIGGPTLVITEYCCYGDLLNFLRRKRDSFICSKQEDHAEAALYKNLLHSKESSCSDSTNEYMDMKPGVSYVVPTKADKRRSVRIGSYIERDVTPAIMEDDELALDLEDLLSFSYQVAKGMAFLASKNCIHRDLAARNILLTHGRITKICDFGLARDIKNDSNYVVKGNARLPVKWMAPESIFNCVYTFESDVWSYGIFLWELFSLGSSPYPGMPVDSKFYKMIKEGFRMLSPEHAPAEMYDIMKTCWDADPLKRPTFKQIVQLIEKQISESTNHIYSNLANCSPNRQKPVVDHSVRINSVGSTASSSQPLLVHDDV
Platelet-derived growth factor receptor alpha, sequence (P16234 whole entry): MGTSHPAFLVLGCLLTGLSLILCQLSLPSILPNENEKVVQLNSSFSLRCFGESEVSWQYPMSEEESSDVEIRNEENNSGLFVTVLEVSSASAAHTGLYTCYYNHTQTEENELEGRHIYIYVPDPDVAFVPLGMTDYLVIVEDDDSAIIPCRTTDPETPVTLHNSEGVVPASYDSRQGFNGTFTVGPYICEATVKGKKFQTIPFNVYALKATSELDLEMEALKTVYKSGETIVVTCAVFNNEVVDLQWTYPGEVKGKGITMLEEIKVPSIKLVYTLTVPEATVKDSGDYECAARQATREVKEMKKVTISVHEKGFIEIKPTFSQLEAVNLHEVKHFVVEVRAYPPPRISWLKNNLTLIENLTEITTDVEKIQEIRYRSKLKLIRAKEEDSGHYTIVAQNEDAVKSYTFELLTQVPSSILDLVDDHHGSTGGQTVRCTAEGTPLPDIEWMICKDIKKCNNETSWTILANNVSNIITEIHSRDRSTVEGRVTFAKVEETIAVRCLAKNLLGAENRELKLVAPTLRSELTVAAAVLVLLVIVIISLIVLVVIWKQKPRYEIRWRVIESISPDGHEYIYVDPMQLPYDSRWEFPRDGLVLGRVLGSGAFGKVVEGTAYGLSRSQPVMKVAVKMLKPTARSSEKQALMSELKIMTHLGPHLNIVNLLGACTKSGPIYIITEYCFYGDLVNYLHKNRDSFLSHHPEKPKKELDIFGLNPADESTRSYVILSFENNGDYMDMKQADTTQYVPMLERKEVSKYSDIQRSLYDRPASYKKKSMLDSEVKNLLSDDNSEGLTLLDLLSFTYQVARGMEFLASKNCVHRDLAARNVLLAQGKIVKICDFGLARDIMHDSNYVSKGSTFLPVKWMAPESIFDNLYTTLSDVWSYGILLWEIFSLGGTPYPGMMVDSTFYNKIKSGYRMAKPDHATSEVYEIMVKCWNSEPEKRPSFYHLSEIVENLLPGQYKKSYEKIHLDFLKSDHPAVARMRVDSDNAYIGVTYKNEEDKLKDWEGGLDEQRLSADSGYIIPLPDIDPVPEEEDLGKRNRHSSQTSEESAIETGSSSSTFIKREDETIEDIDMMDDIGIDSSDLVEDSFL
Macrophage-stimulating protein receptor, sequence (Q04912 25-304 limits assumed): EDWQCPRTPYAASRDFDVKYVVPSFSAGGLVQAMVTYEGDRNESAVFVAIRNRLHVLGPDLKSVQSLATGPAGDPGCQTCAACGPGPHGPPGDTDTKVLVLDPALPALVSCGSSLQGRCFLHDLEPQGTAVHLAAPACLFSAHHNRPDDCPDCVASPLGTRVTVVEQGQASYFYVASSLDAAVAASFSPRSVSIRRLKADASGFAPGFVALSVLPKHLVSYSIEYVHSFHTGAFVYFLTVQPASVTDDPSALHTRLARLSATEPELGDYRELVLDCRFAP
Macrophage-stimulating protein receptor, sequence (Q04912 310-1400 limits assumed): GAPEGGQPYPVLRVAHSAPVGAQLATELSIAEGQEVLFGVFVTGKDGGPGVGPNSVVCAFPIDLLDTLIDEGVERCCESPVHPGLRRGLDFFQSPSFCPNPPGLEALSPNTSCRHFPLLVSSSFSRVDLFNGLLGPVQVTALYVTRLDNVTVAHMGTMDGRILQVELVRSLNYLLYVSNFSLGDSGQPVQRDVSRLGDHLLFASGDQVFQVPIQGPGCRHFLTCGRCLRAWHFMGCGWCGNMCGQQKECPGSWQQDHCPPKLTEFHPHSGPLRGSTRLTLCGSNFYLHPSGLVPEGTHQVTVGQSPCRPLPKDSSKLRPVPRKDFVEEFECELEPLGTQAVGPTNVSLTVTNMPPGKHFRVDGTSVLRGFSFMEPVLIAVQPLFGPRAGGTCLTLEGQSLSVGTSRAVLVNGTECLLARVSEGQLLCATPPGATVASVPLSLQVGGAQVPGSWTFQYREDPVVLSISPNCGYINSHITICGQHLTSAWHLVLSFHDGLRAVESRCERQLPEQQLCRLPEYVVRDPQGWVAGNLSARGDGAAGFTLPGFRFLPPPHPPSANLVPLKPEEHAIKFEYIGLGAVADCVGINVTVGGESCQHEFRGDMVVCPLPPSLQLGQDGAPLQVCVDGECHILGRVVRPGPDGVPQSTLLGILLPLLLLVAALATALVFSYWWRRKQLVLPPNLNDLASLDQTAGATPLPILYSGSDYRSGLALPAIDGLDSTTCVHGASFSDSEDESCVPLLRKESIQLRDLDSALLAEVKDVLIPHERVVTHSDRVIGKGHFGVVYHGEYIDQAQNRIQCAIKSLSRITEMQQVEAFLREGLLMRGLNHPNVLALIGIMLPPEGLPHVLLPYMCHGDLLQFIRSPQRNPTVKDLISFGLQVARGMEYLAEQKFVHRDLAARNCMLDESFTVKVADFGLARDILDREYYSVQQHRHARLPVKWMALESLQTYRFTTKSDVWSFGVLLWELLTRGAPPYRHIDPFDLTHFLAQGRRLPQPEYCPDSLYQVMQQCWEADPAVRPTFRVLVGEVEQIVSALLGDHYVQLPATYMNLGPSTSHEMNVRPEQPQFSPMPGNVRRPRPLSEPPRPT
Hepatocyte growth factor receptor, sequence (P08581 whole entry): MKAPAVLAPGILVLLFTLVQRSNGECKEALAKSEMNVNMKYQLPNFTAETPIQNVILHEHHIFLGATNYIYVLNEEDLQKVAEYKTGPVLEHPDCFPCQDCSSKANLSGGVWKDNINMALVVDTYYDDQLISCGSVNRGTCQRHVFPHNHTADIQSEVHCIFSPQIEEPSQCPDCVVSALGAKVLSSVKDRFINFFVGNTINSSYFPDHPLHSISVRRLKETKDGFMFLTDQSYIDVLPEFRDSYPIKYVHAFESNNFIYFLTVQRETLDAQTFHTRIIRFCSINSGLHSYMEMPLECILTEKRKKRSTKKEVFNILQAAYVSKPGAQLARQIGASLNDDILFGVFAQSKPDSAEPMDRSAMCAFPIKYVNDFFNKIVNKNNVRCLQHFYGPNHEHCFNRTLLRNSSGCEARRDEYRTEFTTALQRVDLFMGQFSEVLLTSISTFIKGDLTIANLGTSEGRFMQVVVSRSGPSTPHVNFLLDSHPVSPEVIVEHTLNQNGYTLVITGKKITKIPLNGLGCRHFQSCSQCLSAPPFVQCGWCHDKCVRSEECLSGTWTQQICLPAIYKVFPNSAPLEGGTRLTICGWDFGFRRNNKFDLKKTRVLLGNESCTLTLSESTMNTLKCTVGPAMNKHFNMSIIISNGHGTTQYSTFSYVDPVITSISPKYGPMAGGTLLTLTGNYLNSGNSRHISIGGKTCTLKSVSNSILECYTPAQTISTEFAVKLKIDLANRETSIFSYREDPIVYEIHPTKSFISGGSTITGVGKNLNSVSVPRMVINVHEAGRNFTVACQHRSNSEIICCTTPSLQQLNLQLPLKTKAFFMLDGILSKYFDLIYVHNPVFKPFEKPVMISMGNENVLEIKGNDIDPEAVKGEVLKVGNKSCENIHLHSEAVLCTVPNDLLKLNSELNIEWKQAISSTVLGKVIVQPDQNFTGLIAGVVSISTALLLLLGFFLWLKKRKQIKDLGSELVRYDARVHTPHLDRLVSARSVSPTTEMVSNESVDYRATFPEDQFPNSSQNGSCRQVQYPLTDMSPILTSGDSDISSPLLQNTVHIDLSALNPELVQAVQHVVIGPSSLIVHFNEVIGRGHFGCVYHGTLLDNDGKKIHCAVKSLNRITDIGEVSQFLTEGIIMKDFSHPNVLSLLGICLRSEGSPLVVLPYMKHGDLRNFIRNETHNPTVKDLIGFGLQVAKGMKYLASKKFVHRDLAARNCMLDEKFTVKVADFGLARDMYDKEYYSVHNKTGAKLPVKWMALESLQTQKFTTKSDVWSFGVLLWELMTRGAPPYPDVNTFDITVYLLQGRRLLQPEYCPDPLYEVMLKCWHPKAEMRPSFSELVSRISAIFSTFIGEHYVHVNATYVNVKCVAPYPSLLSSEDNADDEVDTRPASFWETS

SMILES | AUC [1] [ng·h/mL] | Vd/F [2] [L/kg] | t1/2 [3] [h] | Cmax [4] [ng/mL] | Tmax [5] [h] | IC50 [10] [nM] | IC50 [11] [nM] | IC50 [15] [nM] | IC50 [16] [nM] | MRT inf [25] [h] | also measured
C=CCc1cccc(/C=N/NC(=O)Nc2ccc(Oc3ccnc4cc(OCCCN5CCCCC5)c(OC)cc34)c(F)c2)c1O | 16500 | 43.9 | 13.75 | 680 | 6 | 11 | 27 | 39 | 440 | 23.4 | Activity [6]: 70.18%; Activity [7]: Non-toxic; Activity [8]: Non-toxic; Activity [9]: 65.86%; Ratio IC50 [12]: 1.7; Ratio IC50 [13]: 15.4; Ratio IC50 [14]: 9.6; IC50 [17]: 107000 nM; IC50 [18]: > 100000 nM; IC50 [19]: 1.54 nM; IC50 [20]: 210 nM; IC50 [21]: 212 nM; IC50 [22]: 162 nM; IC50 [23]: 367 nM; IC50 [24]: 14.5 nM
COc1cc2c(Oc3ccc(NC(=O)N/N=C/c4ccc(F)cc4Cl)cc3F)ccnc2cc1OCCCN1CCCCC1 | 910 | 371 | 3.3 | 78 | 0.75 | 130 | 260 | 270 | 790 | 13.2 | CL/F [26]: 1334 mL/min/kg
